“Also recorded” adds a separate entry of the source.
Tests used:
Separase = target: T1, Separase (Homo sapiens, UniProt Q14674); test: In vitro cleavage of Myc-Rad21 assay; format: biochemical; conditions: Sepin-1 50 μm; in vitro transcribed and translated Myc-Rad21
T1 construct: made in house; host or cells: 293T cells; released from IgG-Agarose by TEV protease
Protocol: Myc-Rad21 protein was prepared by using pCS2MT Rad21 plasmid ([…]) as the template and the TNT SP6 High-Yield Wheat Germ Protein Expression kit (Promega, Madison, Wis.). Myc-Rad21 protein was mixed with Separase with or without the presence of Sepin-1. The final concentration of Sepin-1 was 50 μM. The reaction mixture was incubated in a 37° C. water bath for 1 h. The cleavage of myc-Rad21 was immunoblotted with Rad21 pAb.

MCF7 = test: MTT in vitro cytotoxicity assay; format: cell-based, human
Protocol: (§1) The inhibitory effect of Sepin-1 on cell growth was assayed using the 3-(4,5-dimethylthiazol-2yl)-2,5-diphenyl-tetrazolium bromide (MTT) colorimetric dye reduction method (Cancer Chemother. Pharmacol., 2006, 58, 13-23). One hundred thirty-five μl of exponentially growing cancer cells were plated at a density of 0.4-1.0×10^5 cells/well in a 96-well microtiter plate. After 16 h, Sepin-1 at specified concentrations was added to each well. After 72 h of continuous drug exposure, 15 μl of 5 mg/ml MTT was added to each well and the plates were incubated for 4 h at 37° C. Medium was replaced with 150 μl of DMSO to solubilize the formazan, and the optical density (OD) was measured at 550 nm using a microplate spectrophotometer (Anthos Analytical, Durham, N.C., USA). Cell viability was calculated by subtracting the background OD of media alone from the OD of test wells, then dividing by the OD of the control (untreated) wells. Replicates of 3 wells were used for each drug concentration. The in vitro cytotoxicity assay was repeated once and the IC50 reported was the average of two independent experiments.

human cancer cell lines = test: MTT assay, summary over all cell lines; format: cell-based; conditions: all cell lines of Table 1, 72 h, read-out: range of IC50 over the different cell lines
Protocol: Applicants used the MTT assay to test the inhibitory effect of Sepin-1 on the growth of a variety of human cancer cell lines, including leukemia, breast cancer and neuroblastoma.
as §1

Molt4 cells = test: Immunoblotting for apoptosis induction; format: cell-based, human; conditions: various concentrations of Sepin-1, 24 h, Western blot
Protocol: To determine the mechanism of cell growth inhibition induced by Sepin-1, Applicants performed immunoblotting to investigate if apoptosis is induced after Molt4 cells were treated with Sepin-1. Activation of caspase-3 and cleavage of poly(ADP-ribose) polymerase (Parp-1) are two commonly used parameters in determination of apoptosis. Applicants used Etoposide as a positive control, which is a well-known chemotherapy agent that induces DNA damage by interacting with topoisomerase II. […] In addition, Applicants observed that the effect of Sepin-1 on the activation of caspase-3 and degradation of Parp-1 is similar to that of Etoposide (FIG. 8F).
Preparation of protein samples and Western blot were performed as described previously (J Cell Biol, 2008, 183, 1019-1031; PLoS. ONE., 2013, 8, e69458).

mice = test: Repeated intraperitoneal dosing tolerability in mice; format: in vivo; conditions: 10 mg/kg intraperitoneal injection daily for six weeks, 12 mice
MCF7 xenografts = test: Growth inhibition of MCF7 xenograft tumors; format: in vivo, SCID-beige mice
Protocol: (§2) For treatment studies, MCF7 xenografts (ER+ PR+ HER2−) were generated by injection of one million cultured cells grown under standard in vitro conditions as previously described (Proc. Natl. Acad. Sci. U. S. A 105, 2008, 13033-13038). Donor tumors for PDX lines MC1 and BCM-5471 were divided into small fragments and retransplanted into the fat pat of recipient SCID Beige mice (5 mice per group). When the tumors reached approximately ˜200 mg, mice were treated with either vehicle or Sepin-1. Sepin-1 was injected at dose of 10 mg/kg daily for 5 days a week for 3 weeks. […] Vehicle injected mice served as controls. Size of the xenografts were measured every four days using calipers and tumor weight was estimated using the guidelines by NCI for xenograft evaluation (http://ncifrederick.cancer.gov/Lasp/Acuc/Frederick/Media/Documents/ACUC14.pdf). After 3 weeks treatment, the tumors were harvested and fixed in 10% Buffed Formalin Phosphate (Fisher Scientific, Pittsburgh, Pa.) overnight. The tumor tissues were washed with PBS for 3×30 min; dehydrated for 1 h at 70%, 80%, 90% and 100% two times; and immerged in Xylene several times until the tissues became clear. The samples were embedded in wax and sectioned with 5 μm in thickness. All mice were maintained in accordance with the NIH Guide for the Care and Use of Laboratory Animals with approval from the Baylor College of Medicine Institutional Animal Care and Use Committee.

[1] = system: MC1 triple-negative breast tumor xenograft; test: Growth inhibition of patient-derived xenograft MC1; format: in vivo, SCID-beige mice; conditions: 10 mg/kg intraperitoneal injection, three week treatment
Text: (§3) Patient-derived xenograft (PDX) lines MC1 (ER− PR− HER2−) (Proc Natl Acad Sci USA. 100, 2003, 3983-3988) and BCM-5471 (ER− PR− HER2−) (Cancer Res. 73, 2013, 4885-4897) were maintained as described (Cancer Res. 73, 2013, 4885-4897) by serial transplantation into SCID Beige immunocompromised host mice whose endogenous mammary epithelium was removed surgically (Cancer Res. 19, 1959, 515-20).
as §2, with “The tumor tissues were washed with PBS for 3×30 min; dehydrated for 1 h at 70%, 80%, 90% and 100% two times; and immerged in Xylene several times until the tissues became clear. The samples were embedded in wax and sectioned with 5 μm in thickness. All mice were maintained in accordance with the NIH Guide for the Care and Use of Laboratory Animals with approval from the Baylor College of Medicine Institutional Animal Care and Use Committee.” left out

[2] = system: BCM-5471 triple-negative breast tumor xenograft; test: Growth inhibition of patient-derived xenograft BCM-5471; format: in vivo, SCID-beige mice; conditions: 10 mg/kg intraperitoneal injection, three week treatment
Text: as §3
as §2, with “The tumor tissues were washed with PBS for 3×30 min; dehydrated for 1 h at 70%, 80%, 90% and 100% two times; and immerged in Xylene several times until the tissues became clear. The samples were embedded in wax and sectioned with 5 μm in thickness. All mice were maintained in accordance with the NIH Guide for the Care and Use of Laboratory Animals with approval from the Baylor College of Medicine Institutional Animal Care and Use Committee.” left out

[3] = system: Separase overexpressing primary pediatric glioblastoma samples; test: MTT cytotoxicity assays in primary pediatric glioblastoma samples; format: cell-based; conditions: two Separase overexpressing primary pediatric glioblastoma samples
Protocol: (§4) FIG. 10 provides data relating to separase overexpression in Pediatric glioblastoma (GBM) and the effect of Sepin-1 in inhibiting the growth of glioblastoma cells in vitro and in vivo. […] SCID-beige mice after two weeks of transplantation were treated at a dose of 10 mg/kg daily ip for 5 days a week for 4 weeks with either Sepin-1 or vehicle (n=6/group).

[4] = system: pediatric GBM tumor (#4687) orthotopic xenograft; test: Survival analysis, orthotopic xenograft of pediatric GBM tumor; format: in vivo, SCID-beige mice; conditions: 10 mg/kg daily ip, 5 days a week, 4 weeks, n=6/group
Protocol: as §4

[5] = MCF7 xenograft tumors treated with Sepin-1 versus vehicle

T1 sequence (Q14674 whole entry): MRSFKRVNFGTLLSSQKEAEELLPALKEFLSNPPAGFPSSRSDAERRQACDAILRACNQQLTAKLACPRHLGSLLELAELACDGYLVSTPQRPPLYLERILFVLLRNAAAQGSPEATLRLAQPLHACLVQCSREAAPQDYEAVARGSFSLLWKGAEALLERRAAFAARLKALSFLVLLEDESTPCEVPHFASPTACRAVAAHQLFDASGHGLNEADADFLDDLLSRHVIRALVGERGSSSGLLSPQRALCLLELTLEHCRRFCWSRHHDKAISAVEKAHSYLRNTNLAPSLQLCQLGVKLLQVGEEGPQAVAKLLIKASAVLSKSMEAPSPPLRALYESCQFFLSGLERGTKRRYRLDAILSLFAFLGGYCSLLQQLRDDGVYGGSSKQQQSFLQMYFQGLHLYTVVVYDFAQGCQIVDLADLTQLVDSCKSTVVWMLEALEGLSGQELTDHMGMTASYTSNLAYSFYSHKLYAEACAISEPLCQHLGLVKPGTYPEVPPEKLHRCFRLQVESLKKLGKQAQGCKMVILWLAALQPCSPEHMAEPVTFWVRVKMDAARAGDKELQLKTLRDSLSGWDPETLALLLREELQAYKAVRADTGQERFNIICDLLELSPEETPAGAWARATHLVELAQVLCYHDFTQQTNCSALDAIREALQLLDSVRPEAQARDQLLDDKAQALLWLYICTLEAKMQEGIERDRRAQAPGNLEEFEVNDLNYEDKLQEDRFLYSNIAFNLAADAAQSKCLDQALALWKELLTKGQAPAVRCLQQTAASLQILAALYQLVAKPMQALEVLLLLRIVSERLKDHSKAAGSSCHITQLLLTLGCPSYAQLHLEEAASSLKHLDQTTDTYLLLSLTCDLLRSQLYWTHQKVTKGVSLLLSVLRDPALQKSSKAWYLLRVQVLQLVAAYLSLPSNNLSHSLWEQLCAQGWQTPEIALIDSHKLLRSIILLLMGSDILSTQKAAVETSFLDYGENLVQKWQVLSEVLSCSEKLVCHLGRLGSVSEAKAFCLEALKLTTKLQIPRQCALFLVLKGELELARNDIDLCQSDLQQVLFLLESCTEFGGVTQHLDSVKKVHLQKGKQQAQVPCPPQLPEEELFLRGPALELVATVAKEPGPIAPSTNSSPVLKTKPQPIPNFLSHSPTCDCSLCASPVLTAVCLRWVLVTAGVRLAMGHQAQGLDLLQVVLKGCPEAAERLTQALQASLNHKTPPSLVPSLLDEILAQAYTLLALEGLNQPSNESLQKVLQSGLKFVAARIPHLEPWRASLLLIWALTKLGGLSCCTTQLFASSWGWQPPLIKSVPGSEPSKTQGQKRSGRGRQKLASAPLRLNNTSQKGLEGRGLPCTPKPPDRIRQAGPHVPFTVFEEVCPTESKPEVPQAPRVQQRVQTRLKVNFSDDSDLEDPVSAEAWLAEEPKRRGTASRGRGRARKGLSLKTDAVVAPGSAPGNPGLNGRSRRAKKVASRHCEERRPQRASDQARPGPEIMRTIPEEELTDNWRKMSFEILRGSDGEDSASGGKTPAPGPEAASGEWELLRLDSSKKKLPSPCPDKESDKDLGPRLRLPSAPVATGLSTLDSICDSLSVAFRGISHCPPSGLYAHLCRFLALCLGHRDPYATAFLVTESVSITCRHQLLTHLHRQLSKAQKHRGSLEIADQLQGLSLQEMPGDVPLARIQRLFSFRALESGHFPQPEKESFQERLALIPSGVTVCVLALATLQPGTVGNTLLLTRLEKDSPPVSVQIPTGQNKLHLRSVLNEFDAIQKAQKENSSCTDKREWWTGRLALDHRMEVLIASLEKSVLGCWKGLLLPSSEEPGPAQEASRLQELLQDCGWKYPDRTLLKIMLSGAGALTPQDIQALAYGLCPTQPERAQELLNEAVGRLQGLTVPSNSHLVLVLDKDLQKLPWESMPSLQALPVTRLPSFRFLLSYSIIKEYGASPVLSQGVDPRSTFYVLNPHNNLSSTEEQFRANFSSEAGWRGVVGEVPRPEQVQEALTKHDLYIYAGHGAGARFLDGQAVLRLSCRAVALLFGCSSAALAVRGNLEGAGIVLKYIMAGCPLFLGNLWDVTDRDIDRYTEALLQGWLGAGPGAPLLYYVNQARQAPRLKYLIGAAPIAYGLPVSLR

## CC1(C)[N+]([O-])=c2ccc([N+](=O)[O-])cc2=[N+]1[O-] [Sepin-1, 2,2-dimethyl-5-nitro-2H-benzimidazole-1,3 dioxide]
Separase
  inhibition of Rad21 cleavage by activated Separase: could inhibit the Rad21 cleavage by activated Separase; also recorded: inhibits the cleavage of Separase substrate Rad21
MCF7; Homo sapiens, MCF7, Breast, 72 h, read-out: IC50 growth inhibition
  IC50: 14.4 µM
MCF7; MCF7 versus MCF10f
  sensitivity of MCF7 cells relative to MCF10f cells: over 3.3 times
Human cancer cell lines
  IC50: ≥ 1 µM
Molt4 cells
  activation of caspase-3: caspase-3 proenzyme was induced and activated
  cleavage of poly(ADP-ribose) polymerase (Parp-1): Parp-1 cleavage
mice
  weight loss and adverse effects: no weight loss or apparent adverse effects
MCF7 xenografts; 10 mg/kg daily, 5 days a week, 3 weeks
  growth of MCF7 xenograft tumors: inhibits the growth of xenograft tumor derived from MCF-7
MCF7 xenografts; [5]
  apoptotic bodies in H&E stained tumor sections: increase of apoptotic bodies
  cleaved caspase-3 staining of tumor sections: significantly increased
[1]
  inhibition of growth of xenograft MC1 tumors versus vehicle: 70%
[2]
  growth of xenograft BCM-5471 versus vehicle: no significant difference in growth; also recorded: more sensitive to Sepin-1 than MC-1 tumors
[3]
  cell death in MTT cytotoxicity assays: efficient cell death
[4]
  life span of treated mice: significant increase in the life span

Reference: US10052310B2, “Separase inhibitors and uses thereof” (Baylor College of Medicine, priority 2013, dated 2018)
